Values after ≈ are worked out from the molar mass of the structure shown.
Tests used:
[1] = Binding affinity to decoding site rRNA of ribosome in TNT rabbit reticulocyte lysate using luciferase T7 control DNA plasmid assessed as inhibition of translation incubated for 60 mins by luciferase reporter gene based coupled transcription/translation assay; set-up: species or system Oryctolagus cuniculus
[2] = test system: Bacillus spizizenii; assay: microbe, parasite or virus in culture; assay type: functional; settings: ATCC 6633
[3] = test system: Escherichia coli; assay: microbe, parasite or virus in culture; assay type: functional; settings: R477/100
[4] = Binding affinity to decoding site rRNA of ribosome in Escherichia coli using Escherichia coli S30 circular DNA assessed as inhibition of translation incubated for 60 mins by luciferase reporter gene based coupled transcription/translation assay
[5] = Binding affinity to decoding site rRNA of ribosome in Escherichia coli using Escherichia coli S30 circular DNA assessed as inhibition of translation incubated for 20 mins by luciferase reporter gene based coupled transcription/translation assay

Row | Structure (SMILES) | IC50 [1] [µM] | MIC [2] [µM] | MIC [3] [µM] | IC50 [4] [µM] | IC50 [5] [µM]
1 | CN[C@@H]1[C@@H](O)[C@@H](O[C@@H]2[C@@H](O)[C@H](O[C@H]3O[C@H](CN)CC[C@H]3N)[C@@H](N)C[C@H]2N)OC[C@]1(C)O | 62 | < 0.75 |  |  | 
2 | NC[C@H]1O[C@@H](O[C@H]2[C@H](O)[C@@H](N)C[C@@H](N)[C@@H]2O[C@H]2O[C@H]([C@H](O)CO)[C@@H](O)[C@H](O)[C@H]2N)[C@H](O)[C@@H]1O | 7.5 | 34 (≈ 16.5 µg/mL) | > 273 | 0.7 | 
3 | N[C@H]1[C@@H](O[C@@H]2[C@@H](O)[C@H](O)[C@@H](N)C[C@H]2N)O[C@H]([C@@H](O)CO)[C@@H](O)[C@@H]1O | 516 | > 375 | > 375 | 91.9 | 
4 | N[C@H]1[C@@H](O[C@@H]2[C@@H](O)[C@H](O)[C@@H](N)C[C@H]2N)O[C@H]([C@H](O)CO)[C@@H](O)[C@@H]1O | 120 | 311 (≈ 110 µg/mL) | > 311 | 11 | 
5 | C[C@@H](O)[C@H]1O[C@H](O[C@@H]2[C@@H](O)[C@H](O)[C@@H](N)C[C@H]2N)[C@H](N)[C@@H](O)[C@@H]1O | 347 |  |  | 6 | 
6 | C[C@H](N)[C@H]1O[C@@H](O[C@H]2[C@H](O)[C@@H](N)C[C@@H](N)[C@@H]2O[C@H]2O[C@H]([C@H](O)CO)[C@@H](O)[C@H](O)[C@H]2N)[C@H](O)[C@@H]1O | 1.2 | 64 (≈ 31.9 µg/mL) | > 257 | 1.2 | 
7 | C[C@H](N)[C@H]1O[C@@H](O[C@H]2[C@H](O)[C@@H](N)C[C@@H](N)[C@@H]2O[C@H]2O[C@H]([C@@H](C)O)[C@@H](O)[C@H](O)[C@H]2N)[C@H](O)[C@@H]1O | 1.5 | 156 (≈ 75.3 µg/mL) | 1270 (≈ 611 µg/mL) | 1.1 | 
8 | CN[C@@H]1[C@@H](O)[C@@H](O[C@H]2[C@H](O)[C@@H](O[C@H]3O[C@H](C(C)O)[C@@H](O)[C@H](O)[C@H]3N)[C@H](N)C[C@@H]2N)OC[C@]1(C)O (some centres undefined) |  | < 1.25 | 9 (≈ 4.47 µg/mL) | 0.01 | 
9 | N[C@H]1[C@@H](O[C@@H]2[C@@H](O)[C@H](O)[C@@H](N)C[C@H]2N)O[C@H](C(O)CO)[C@@H](O)[C@@H]1O (mixture of isomers) |  |  |  |  | 24
10 | N[C@H]1[C@@H](O[C@H]2[C@H](O)[C@@H](O)[C@H](N)C[C@@H]2N)O[C@H](CO)[C@@H](O)[C@@H]1O [PAROMAMINE] |  |  |  |  | 3.9
